Laboratory results from article PMC2967674 (Bioorganic & medicinal chemistry, 2009).
Read-outs that look alike come from different tables or passages of the source.

How the values were obtained:
[1] = molecular target: T1, System xc^− transporter (SXc^−) (Homo sapiens, UniProt Q9UPY5); format: cell-based; settings: SNB-19 cells; for inhibitory activity at SXc^− (in words): initial screen at a single concentration (250 μM or 500 μM)
T1 sequence (Q9UPY5 1-501): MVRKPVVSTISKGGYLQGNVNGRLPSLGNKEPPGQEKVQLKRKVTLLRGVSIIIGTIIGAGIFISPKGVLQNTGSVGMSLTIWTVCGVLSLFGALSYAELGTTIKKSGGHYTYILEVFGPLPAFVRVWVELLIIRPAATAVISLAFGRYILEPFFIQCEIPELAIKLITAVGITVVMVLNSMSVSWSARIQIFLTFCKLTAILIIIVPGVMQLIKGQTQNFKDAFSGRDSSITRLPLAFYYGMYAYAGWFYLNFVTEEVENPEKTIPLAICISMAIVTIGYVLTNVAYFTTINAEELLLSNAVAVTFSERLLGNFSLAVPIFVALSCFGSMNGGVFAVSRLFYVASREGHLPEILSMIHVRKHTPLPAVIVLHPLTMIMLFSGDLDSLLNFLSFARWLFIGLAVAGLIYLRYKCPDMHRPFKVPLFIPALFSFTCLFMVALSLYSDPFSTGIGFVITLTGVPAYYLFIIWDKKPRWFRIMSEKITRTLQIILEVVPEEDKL
T1 sequence (P08195 1-529 partner): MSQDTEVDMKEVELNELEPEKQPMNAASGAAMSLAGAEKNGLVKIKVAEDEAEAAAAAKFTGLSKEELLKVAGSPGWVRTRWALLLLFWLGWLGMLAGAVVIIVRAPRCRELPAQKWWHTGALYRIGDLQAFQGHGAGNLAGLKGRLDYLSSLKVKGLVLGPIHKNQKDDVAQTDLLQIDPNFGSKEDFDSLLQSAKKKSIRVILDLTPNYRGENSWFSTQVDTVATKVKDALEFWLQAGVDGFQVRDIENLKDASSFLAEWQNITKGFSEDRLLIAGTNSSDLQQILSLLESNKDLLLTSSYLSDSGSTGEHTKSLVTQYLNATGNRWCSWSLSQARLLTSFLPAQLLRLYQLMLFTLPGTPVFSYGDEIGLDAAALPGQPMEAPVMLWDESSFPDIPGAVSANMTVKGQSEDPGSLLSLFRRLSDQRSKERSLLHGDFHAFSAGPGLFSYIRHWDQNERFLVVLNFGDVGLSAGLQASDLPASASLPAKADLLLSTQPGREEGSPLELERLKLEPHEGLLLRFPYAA

[2] = molecular target: SXc^−; settings: read-out: Ki at SXc^−; cited from earlier work
[3] = tested on: SXc^−; settings: cited from earlier work
[4] = tested on: AMPA receptor; settings: brain slice; cited from earlier work
[5] = molecular target: T2, SXc^− (Homo sapiens, UniProt Q9UPY5); format: cell-based; settings: SNB-19 cells, Na-free; for substrate-induced efflux of L-Glu (substrate activity): 500 μM; for attenuation of L-Cys2-induced efflux of L-Glu: added together with L-cystine
T2 sequence (Q9UPY5 1-501): T1 sequence (Q9UPY5 1-501)
T2 sequence (P08195 1-529 partner): T1 sequence (P08195 1-529 partner)

[6] = tested on: GluR2; settings: S1S2 construct filter assay; Gouaux, personal communication; cited from earlier work
[7] = Conversion of open hydrazone to closed isoxazolo[3,4-d]pyridazinone in solution; format: physicochemical; settings: on standing in solution, 11a to 13a

Compound: 4-{1-[(3,5-Bis-trifluoromethyl-phenyl)-hydrazono]-ethyl}-5-(2-naphthalen-2-yl-ethyl)-isoxazole-3-carboxylic acid [Compound 11e]
- inhibition of SXc^−-mediated L-Glu uptake ([1]; compound 500 μM (100 minus % of control of Table 2)): 86%
- inhibitory activity at SXc^− (in words) [1]: moderate amount of inhibitory activity

Compound: N[C@H](C(=O)O)c1ccc(C(=O)O)cc1 [Compound 4-S-CPG, 4-S-carboxy-phenylglycine]
- Ki [2]: ~5 µM
- substrate activity at SXc^− (in words) [3]: essentially a non-substrate inhibitor

Compound: Cc1onc(O)c1C[C@H](N)C(=O)O [Compound 6, aminomethyl isoxazole propionic acid, reference compound]
- inhibitory activity at SXc^− (in words) [1]: no discernable activity

Compound: Cc1onc(C(=O)O)c1C[C@H](N)C(=O)O [Compound 7, amino-3-carboxy-5-methylisoxazole propionic acid, reference compound]
- inhibitory activity at SXc^− (in words) [1]: no discernable activity

Compound: N[C@@H](Cc1c(C(=O)O)noc1CCc1ccccc1)C(=O)O [Compound 7d]
- inhibitory activity at SXc^− (in words) [1]: markedly inhibit
- displacement of radiolabeled AMPA [4]: essentially no ability to displace radiolabeled AMPA

Compound: N[C@@H](Cc1c(C(=O)O)noc1COCc1ccccc1)C(=O)O [Compound 7e, 4-[(2R,S)-2-amino-2-carboxyethyl]-5-[benzyloxymethyl]isoxazole-3-carboxylic acid]
- inhibitory activity at SXc^− (in words) [1]: markedly inhibit

Compound: N[C@@H](Cc1c(C(=O)O)noc1CCc1cccc2ccccc12)C(=O)O [Compound 7f]
- inhibitory activity at SXc^− (in words) [1]: markedly inhibit
- displacement of radiolabeled AMPA [4]: essentially no ability to displace radiolabeled AMPA

Compound: N[C@@H](Cc1c(C(=O)O)noc1CCc1ccc2ccccc2c1)C(=O)O [Compound 7g]
- inhibitory activity at SXc^− (in words) [1]: markedly inhibit
- substrate-induced efflux of L-Glu (substrate activity) [5]: did not induce an efflux of L-Glu over background levels
- attenuation of L-Cys2-induced efflux of L-Glu [5]: did attenuate the ability of L-Cys2 to exchange with intracellular L-Glu
- attenuation of L-Cys2-induced efflux of L-Glu ([5]; listed as S-2-naphthyl-ACPA): attenuate L-cystine-induced efflux
- displacement of radiolabeled AMPA [4]: essentially no ability to displace radiolabeled AMPA

Compound: C/C(=N\NC(N)=O)c1c(C(=O)O)noc1C [Compound 9b]
- GluR2 binding [6]: no detectable GluR2 binding

Compound: C/C(=N\NC(=O)Nc1ccccc1)c1c(C(=O)O)noc1C [Compound 9c]
- inhibitory activity at SXc^− (in words) [1]: moderate amount of inhibitory activity
- GluR2 binding [6]: no detectable GluR2 binding

Compound: C/C(=N\Nc1ccccc1)c1c(C(=O)O)noc1C [Compound 11a, 5-Methyl-4-[1-(phenyl-hydrazono)-ethyl]-isoxazole-3-carboxylic acid]
- time for the open form to convert to the closed [3,4-d] form in solution [7]: a matter of a few hours

Compound: C/C(=N\Nc1ccc([N+](=O)[O-])cc1[N+](=O)[O-])c1c(C(=O)O)noc1C [Compound 11d, 4-{1-[(2,4-Dinitro-phenyl)-hydrazono]-ethyl}-5-methyl-isoxazole-3-carboxylic acid]
- GluR2 binding [6]: no detectable GluR2 binding

Compound: C/C(=N\Nc1ccc([N+](=O)[O-])cc1[N+](=O)[O-])c1c(C(=O)O)noc1COCc1ccc2ccccc2c1 [Compound 17, 4-{1-[(2,4-Dinitro-phenyl)-hydrazono]-ethyl}-5-(naphthalen-2-ylmethoxymethyl)-isoxazole-3-carboxylic acid]
- inhibitory activity at SXc^− (in words) [1]: virtually devoid of activity

Compound: N[C@@H](Cn1oc(=O)[nH]c1=O)C(=O)O [QA, quisqualate]
- Ki [2]: ~5 µM
- rate of exchange with L-Glu relative to L-Cys2 [3]: 35%

Compound: L-cystine [reference compound]
- substrate-induced efflux of L-Glu (substrate activity) [5]: produced a significant efflux of L-glutamate over baseline
